Data on seven molecules can be found in BindingDB's records for doi:10.1016/j.bioorg.2014.03.008 (University of Ljubljana, 2014).

The pKi is the negative decadic logarithm of the Ki, by convention in mol/L. By pIC50 is commonly meant −log10 of the IC50, conventionally taken in molar units.

pIC50, pKi: −log10 of the molar value.

The target in experiment [1] is UDP-N-acetylglucosamine 1-carboxyvinyltransferase (Escherichia coli (strain K12), UniProt P0A749).
The target in experiment [2] is T1, UDP-N-acetylglucosamine 1-carboxyvinyltransferase 2 (Staphylococcus aureus (strain Mu50 / ATCC 700699), UniProt P65456).
T1 sequence (P65456 whole entry): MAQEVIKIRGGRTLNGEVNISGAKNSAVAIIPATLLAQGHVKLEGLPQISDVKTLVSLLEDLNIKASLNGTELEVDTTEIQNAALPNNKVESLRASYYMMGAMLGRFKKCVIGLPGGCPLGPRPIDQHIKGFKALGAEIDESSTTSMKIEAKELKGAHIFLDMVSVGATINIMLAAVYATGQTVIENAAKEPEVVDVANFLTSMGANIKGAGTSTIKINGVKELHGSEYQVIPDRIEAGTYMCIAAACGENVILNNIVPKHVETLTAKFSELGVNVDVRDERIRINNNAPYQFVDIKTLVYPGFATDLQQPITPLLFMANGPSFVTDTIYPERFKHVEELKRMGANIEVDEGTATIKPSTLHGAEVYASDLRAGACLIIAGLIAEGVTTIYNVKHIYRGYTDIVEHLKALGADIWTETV

Experiment [3] addresses UDP-N-acetylmuramate--L-alanine ligase [A299V,V378L,T444A] (Klebsiella pneumoniae, UniProt A6T4N4, A299V/T444A/V378L).
In experiment [4] the target is UDP-N-acetylmuramate--L-alanine ligase (Proteus mirabilis (strain HI4320), UniProt B4F110).
UDP-N-acetylmuramate--L-alanine ligase (Proteus mirabilis (strain HI4320), UniProt B4F110), sequence (B4F110 whole entry): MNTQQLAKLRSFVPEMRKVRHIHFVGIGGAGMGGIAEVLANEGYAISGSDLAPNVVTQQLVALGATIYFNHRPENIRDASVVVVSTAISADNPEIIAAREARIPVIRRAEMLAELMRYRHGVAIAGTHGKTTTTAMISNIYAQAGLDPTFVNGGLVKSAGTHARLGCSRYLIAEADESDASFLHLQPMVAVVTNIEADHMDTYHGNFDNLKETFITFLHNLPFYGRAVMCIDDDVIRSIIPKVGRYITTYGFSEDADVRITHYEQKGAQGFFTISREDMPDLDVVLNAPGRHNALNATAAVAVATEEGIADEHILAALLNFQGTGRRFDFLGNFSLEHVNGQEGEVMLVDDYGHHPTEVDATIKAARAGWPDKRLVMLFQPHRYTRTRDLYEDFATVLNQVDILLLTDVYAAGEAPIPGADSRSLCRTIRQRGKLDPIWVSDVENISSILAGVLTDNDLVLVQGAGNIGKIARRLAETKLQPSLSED
The target of experiment [5] is UDP-N-acetylmuramate--L-alanine ligase (Escherichia coli (strain K12), UniProt P17952).
UDP-N-acetylmuramate--L-alanine ligase (Escherichia coli (strain K12), UniProt P17952), sequence (P17952 whole entry): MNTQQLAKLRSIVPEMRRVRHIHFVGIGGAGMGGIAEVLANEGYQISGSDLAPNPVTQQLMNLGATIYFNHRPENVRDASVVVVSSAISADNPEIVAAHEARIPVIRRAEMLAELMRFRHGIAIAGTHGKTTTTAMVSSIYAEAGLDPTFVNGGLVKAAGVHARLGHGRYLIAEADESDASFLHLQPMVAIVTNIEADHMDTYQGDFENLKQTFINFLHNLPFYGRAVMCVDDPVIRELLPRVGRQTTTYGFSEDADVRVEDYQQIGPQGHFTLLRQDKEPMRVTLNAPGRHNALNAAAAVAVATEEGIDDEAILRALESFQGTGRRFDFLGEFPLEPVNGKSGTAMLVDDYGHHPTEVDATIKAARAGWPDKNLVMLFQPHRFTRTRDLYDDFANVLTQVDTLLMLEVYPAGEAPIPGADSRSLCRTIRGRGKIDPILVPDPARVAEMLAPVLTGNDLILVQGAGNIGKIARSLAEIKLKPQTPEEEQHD
The target of experiment [6] is T2, UDP-N-acetylmuramoyl-L-alanyl-D-glutamate--2,6-diaminopimelate ligase (Mycobacterium tuberculosis (strain ATCC 25618 / H37Rv), UniProt P9WJL3).
T2 sequence (P9WJL3 whole entry): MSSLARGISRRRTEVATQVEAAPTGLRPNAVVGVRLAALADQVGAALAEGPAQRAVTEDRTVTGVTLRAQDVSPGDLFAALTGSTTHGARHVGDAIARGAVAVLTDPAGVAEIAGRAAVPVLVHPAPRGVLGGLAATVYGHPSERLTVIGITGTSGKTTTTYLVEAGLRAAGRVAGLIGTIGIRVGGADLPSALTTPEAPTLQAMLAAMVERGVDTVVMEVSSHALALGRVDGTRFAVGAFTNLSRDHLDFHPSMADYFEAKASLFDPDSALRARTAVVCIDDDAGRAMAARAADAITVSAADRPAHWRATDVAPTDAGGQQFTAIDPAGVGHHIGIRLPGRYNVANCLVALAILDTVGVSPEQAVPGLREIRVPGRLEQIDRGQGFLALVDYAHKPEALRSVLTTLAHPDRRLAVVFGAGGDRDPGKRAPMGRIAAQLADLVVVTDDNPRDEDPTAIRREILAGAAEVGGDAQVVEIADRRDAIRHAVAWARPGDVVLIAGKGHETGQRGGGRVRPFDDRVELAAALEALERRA

For experiment [7], the target named is T3, UDP-N-acetylmuramoyl-tripeptide--D-alanyl-D-alanine ligase (Streptococcus pneumoniae (strain ATCC BAA-255 / R6), UniProt Q8DNV6).
T3 sequence (Q8DNV6 whole entry): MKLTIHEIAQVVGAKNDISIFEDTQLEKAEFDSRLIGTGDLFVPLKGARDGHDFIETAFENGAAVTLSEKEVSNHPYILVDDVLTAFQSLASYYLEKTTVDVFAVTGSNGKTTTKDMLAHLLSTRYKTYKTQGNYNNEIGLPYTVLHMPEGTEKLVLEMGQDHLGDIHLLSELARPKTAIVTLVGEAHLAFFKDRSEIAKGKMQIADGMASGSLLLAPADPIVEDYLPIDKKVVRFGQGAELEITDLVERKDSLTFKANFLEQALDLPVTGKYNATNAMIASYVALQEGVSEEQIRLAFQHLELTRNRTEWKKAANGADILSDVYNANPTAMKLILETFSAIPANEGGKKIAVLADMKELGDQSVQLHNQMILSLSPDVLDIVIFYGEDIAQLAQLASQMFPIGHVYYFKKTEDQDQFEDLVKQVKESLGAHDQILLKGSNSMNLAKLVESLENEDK

Experiment [8] concerns the target T4, UDP-N-acetylmuramoyl-tripeptide--D-alanyl-D-alanine ligase (Escherichia coli (strain K12), UniProt P11880).
T4 sequence (P11880 whole entry): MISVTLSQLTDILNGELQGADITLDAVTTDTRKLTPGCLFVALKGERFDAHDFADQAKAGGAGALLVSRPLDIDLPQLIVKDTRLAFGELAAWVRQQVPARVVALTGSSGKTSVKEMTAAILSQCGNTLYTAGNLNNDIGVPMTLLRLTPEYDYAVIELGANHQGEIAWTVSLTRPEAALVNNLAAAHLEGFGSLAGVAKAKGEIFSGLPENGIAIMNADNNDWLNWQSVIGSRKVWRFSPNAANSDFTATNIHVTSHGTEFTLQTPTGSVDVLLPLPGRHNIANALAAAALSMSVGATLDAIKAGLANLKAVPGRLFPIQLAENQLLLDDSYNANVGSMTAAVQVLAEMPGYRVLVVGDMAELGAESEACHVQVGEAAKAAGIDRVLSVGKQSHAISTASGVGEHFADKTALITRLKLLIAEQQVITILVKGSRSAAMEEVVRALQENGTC

The target in experiment [9] is UDP-N-acetylmuramoyl-tripeptide--D-alanyl-D-alanine ligase (Staphylococcus aureus (strain COL), UniProt A0A0H2WWP1).
UDP-N-acetylmuramoyl-tripeptide--D-alanyl-D-alanine ligase (Staphylococcus aureus (strain COL), UniProt A0A0H2WWP1), sequence (A0A0H2WWP1 whole entry): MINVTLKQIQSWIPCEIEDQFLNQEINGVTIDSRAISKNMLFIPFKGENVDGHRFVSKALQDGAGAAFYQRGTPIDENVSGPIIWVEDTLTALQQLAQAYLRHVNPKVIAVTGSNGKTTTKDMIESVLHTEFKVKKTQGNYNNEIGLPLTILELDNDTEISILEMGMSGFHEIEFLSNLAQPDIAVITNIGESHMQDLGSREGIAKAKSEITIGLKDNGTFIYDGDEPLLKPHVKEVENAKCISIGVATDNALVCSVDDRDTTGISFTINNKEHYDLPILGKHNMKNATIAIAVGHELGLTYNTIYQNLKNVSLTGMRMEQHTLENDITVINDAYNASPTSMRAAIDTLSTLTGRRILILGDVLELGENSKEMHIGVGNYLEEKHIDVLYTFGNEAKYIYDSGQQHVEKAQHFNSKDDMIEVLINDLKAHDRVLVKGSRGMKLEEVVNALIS
The target in experiment [10] is T5, UDP-N-acetylglucosamine 1-carboxyvinyltransferase (Enterobacter cloacae subsp. cloacae (strain ATCC 13047 / DSM 30054 / NBRC 13535 / NCTC 10005 / WDCM 00083 / NCDC 279-56), UniProt P33038).
T5 sequence (P33038 whole entry): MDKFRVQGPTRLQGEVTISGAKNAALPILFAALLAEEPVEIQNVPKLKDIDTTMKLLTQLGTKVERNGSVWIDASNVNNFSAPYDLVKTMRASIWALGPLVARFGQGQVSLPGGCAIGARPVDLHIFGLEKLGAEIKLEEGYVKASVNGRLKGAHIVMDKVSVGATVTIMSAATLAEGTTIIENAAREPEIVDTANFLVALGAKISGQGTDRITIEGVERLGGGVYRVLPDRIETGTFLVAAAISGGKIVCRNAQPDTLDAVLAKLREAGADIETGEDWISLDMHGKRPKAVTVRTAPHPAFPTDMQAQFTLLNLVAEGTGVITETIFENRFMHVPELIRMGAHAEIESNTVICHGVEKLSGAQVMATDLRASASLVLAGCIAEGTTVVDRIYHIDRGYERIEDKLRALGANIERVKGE
The target of experiment [11] is T5, UDP-N-acetylglucosamine 1-carboxyvinyltransferase. The source holds these as a separate data set.

UDP-N-acetylglucosamine 1-carboxyvinyltransferase (Escherichia coli (strain K12), UniProt P0A749), sequence (P0A749 whole entry): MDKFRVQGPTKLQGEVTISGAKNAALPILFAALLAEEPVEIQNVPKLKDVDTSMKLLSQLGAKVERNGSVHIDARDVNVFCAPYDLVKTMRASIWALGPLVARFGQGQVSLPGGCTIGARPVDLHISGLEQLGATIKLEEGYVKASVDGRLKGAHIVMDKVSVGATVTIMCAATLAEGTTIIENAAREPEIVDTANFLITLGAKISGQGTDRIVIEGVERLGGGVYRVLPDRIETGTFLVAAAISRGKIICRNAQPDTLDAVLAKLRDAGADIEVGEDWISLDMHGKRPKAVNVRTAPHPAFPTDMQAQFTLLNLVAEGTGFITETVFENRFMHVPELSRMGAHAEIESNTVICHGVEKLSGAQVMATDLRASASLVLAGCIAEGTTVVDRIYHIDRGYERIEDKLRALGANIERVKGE
UDP-N-acetylmuramate--L-alanine ligase [A299V,V378L,T444A], sequence (A6T4N4 whole entry A299V/V378L/T444A): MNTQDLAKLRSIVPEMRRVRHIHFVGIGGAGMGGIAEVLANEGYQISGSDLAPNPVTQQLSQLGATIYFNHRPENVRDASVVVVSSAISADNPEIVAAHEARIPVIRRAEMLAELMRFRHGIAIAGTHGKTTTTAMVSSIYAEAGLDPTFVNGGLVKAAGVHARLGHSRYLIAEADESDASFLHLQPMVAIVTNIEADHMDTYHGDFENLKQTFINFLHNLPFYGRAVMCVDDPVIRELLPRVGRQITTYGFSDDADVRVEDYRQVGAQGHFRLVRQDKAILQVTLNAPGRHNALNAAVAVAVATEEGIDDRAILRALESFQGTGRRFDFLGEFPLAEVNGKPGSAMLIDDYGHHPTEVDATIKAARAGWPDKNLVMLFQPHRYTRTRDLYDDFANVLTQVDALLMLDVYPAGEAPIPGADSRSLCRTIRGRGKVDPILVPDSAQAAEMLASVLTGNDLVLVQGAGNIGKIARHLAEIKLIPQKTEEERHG

As to `CC(C)[C@H](NC(=O)[C@H](NC(=O)[C@@H](NC(=O)[C@H](NC(=O)[C@@H](NC(=O)[C@H](NC(=O)[C@@H](NC(=O)[C@H](NC(=O)[C@H](N)c1ccc(O)cc1)c1cc(O)cc(O)c1)C(C)C)c1cc(O)cc(O)c1)c1ccc(O)cc1)c1cc(O)cc(O)c1)c1ccc(O)cc1)c1cc(O)cc(O)c1)C(=O)N[C@@H](C(=O)N[C@H](C(=O)N[C@@H](Cc1ccccc1)C(=O)N[C@@H](CC(=O)O)C(=O)O)c1ccc(O)cc1)c1cc(O)cc(O)c1` [Feglymicin (compound 30)], the pKi was 5.47 in experiment [1] and 5.46 in [2].

Take `CC(Oc1nc2ccccc2nc1N)c1ccccc1` (configuration not stated) [MurC inhibitor (compound 23)]: the pIC50 is 4.58 in experiment [3], 4.38 in experiment [4] and 4.52 in experiment [5].

In the case of `C[C@]12Cc3cc4c(cc3-c3cccc(c31)CCN2)OCO4` [MurE inhibitor (compound 52)], the pIC50 in experiment [6] was 4.17.

Take `CC(C)=CCC/C(C)=C\COc1cc(O)cc(O)c1C(=O)C(C)C` [MurE inhibitor (compound 53)]: the pIC50 in [6] was 4.12.

Consider `N#CC1=C(NC(=O)c2cc(S(=O)(=O)N3CCOCC3)c(Cl)cc2Cl)SC2CN(Cc3cccc(O)c3)CCC12` (configuration not stated) [MurF inhibitor (compound 57)], for which the pIC50 in [7] was 6.38; in experiment [8] it was 4.09; in [9], 4.04.

Molecule `CN(C(=O)C1CC(OS(=O)(=O)c2cccc3ccccc23)CCC1NS(=O)(=O)c1cccc2ccccc12)[C@@H](CCCC(=O)O)C(=O)O` (some centres not stated) [T6361 (compound 4)] had a negative-log Ki (pKi) in experiment [10] of 4.80.

With `Cc1c(O)c(O)c2c(c1O)O2` [Terreic acid (12)], the negative-log IC50 (pIC50) in experiment [11] is 4.85.
